# Data: PubChem BioAssay (NCI)
#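 Dose response: 5 concentrations. Exposure: 48 h. Format: 96-well plates. Endpoint: linear interpolation; highest concentration if not reached. The concentration for 50% growth inhibition is given as GI50. TGI is the concentration that stops growth completely.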
# Assays:
# Experiment in all cases: inhibition of tumour cell growth, NCI panel, 48 h
# M14 melanoma = tested on: M14 melanoma
# OVCAR-3 ovarian = tested on: OVCAR-3 ovarian
# DU-145 prostate = tested on: DU-145 prostate
# HL-60(TB) leukemia = tested on: HL-60(TB) leukemia
# MCF7 breast = tested on: MCF7 breast
# SW-620 colon = tested on: SW-620 colon
# PC-3 prostate = tested on: PC-3 prostate
# HOP-92 NSCLC = tested on: HOP-92 NSCLC
# MOLT-4 leukemia = tested on: MOLT-4 leukemia
# SN12C renal = tested on: SN12C renal
Compound,GI50 (M14 melanoma) [µM],TGI (M14 melanoma) [µM],GI50 (OVCAR-3 ovarian) [µM],TGI (OVCAR-3 ovarian) [µM],GI50 (DU-145 prostate) [µM],TGI (DU-145 prostate) [µM],GI50 (HL-60(TB) leukemia) [µM],TGI (HL-60(TB) leukemia) [µM],GI50 (MCF7 breast) [µM],TGI (MCF7 breast) [µM],GI50 (SW-620 colon) [µM],TGI (SW-620 colon) [µM],GI50 (PC-3 prostate) [µM],TGI (PC-3 prostate) [µM],GI50 (HOP-92 NSCLC) [µM],TGI (HOP-92 NSCLC) [µM],GI50 (MOLT-4 leukemia) [µM],TGI (MOLT-4 leukemia) [µM],GI50 (SN12C renal) [µM],TGI (SN12C renal) [µM]
CN1CCC2(CC1)NC(=O)c1c(c3ccc(Cl)c(Cl)c3n1C)C2C#N (centres undefined),2.73,8.5,5.32,12.3,6.01,15.2,3.91,> 22.6,2.53,8.83,8.48,33.3,5.7,21.1,2.52,19.6,4.52,> 28,5.82,31.2
C[C@]12CC[C@@H]3c4cc(OC(F)F)c(OS(N)(=O)=O)cc4CC[C@H]3[C@@H]1CC[C@@H]2OS(N)(=O)=O,0.631,17.7,2.17,28.4,1.47,22.4,0.829,27.6,1.09,19.2,0.439,20.7,1.41,30.6,1.15,10.6,1.06,47.7,2.07,21.4
COc1cc(-c2oc3c(OC)cc(OC)c(O)c3c(=O)c2OC)cc(OC)c1OC,–,> 100,–,> 100,–,> 100,–,> 100,–,> 100,–,> 100,–,> 100,–,> 100,–,> 100,–,> 100
CCN1C(=O)N(CC)C2C1NN=c1s/c(=C\c3ccco3)c(=O)n12 (centres undefined),0.415,> 35.5,0.334,–,0.703,> 100,0.284,6,0.361,> 100,0.439,> 100,0.455,> 100,0.349,> 100,0.824,> 100,0.941,> 100
COc1ccc2cc(C(=O)/C=C/c3ccc(N(C)C)cc3)ccc2c1,> 100,> 100,> 100,> 100,> 100,> 100,> 100,> 100,83,> 100,87.3,> 100,> 100,> 100,> 100,> 100,> 100,> 100,> 100,> 100
Clc1ccc(Nc2ccnc(N3CCN(c4ccnc5cc(Cl)ccc45)CC3)n2)cc1,1.77,4.16,2.93,9.87,4.8,31.6,3.54,20,1.96,6.87,2.88,11.6,1.98,13.3,0.935,4.18,2.94,9.97,3,28.6
COc1cc2c(cc1Cc1cccc(Cl)c1F)c(=O)c(C(=O)O)cn2[C@@H](CO)C(C)C,3.65,15,3.32,10.9,5.62,18.8,2.81,6.95,3.54,16.3,3.57,15,2.59,9.21,1.45,6.34,4.67,18.5,3.06,13.7
